Active and inactive are the calls of the source. No cut-off for these calls is given here.
Assays:
SJSA-1 = experiment: Antiproliferative activity against human SJSA-1 cells assessed as inhibition of cell proliferation incubated for 48 hrs by CCK-8 assay; format: functional, cell-based; conditions: SJSA-1, 48 h
[1] = Cytotoxicity against human L02 cells assessed as inhibition of cell proliferation incubated for 48 hrs by CCK-8 assay; format: toxicity, cell-based
[2] = molecular target: T1, Aurora kinase A (Homo sapiens) (UniProt O14965); experiment: Covalent binding affinity to recombinant human Aurora A (1 to 403 residues) expressed in Escherichia coli assessed as dissociation rate constant by surface plasmon resonance analysis
T1 sequence (whole entry): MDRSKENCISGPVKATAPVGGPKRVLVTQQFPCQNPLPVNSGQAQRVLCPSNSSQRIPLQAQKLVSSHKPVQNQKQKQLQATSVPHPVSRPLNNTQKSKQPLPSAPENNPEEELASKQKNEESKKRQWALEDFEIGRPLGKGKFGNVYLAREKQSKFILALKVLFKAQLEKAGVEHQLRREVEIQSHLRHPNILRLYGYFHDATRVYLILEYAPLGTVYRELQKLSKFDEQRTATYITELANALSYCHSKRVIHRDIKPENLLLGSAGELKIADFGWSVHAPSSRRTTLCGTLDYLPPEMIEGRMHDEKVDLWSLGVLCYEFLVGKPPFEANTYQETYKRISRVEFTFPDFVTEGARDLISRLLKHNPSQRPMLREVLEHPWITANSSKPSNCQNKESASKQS

[3] = molecular target: T1, Aurora kinase A (Homo sapiens); experiment: Covalent irreversible inhibition of recombinant human Aurora A (1 to 403 residues) expressed in Escherichia coli using STK-substrate 2-biotin as substrate at 0.625 to 40 uM incubated upto 120 mins in presence of ATP by HTRF assay; conditions: dose 0.625-40 µM, TDE = time-dependent effect
[4] = molecular target: T1, Aurora kinase A (Homo sapiens); experiment: Inhibition of Aurora A in human MDA-MB-231 cells assessed as decrease in Aurora A phosphorylation at Thr288 residue at 0.2 to 0.6 uM incubated for 1 hrs by Western blot analysis; format: cell-based; conditions: dose 0.2-0.6 µM
[5] = molecular target: T1, Aurora kinase A (Homo sapiens); experiment: Binding affinity to Aurora A in human MDA-MB-231 cells assessed as thermal stability at 46 to 62 degreeC at 1 uM incubated for 1 hrs by […] analysis; format: cell-based
Aurora kinase A [6] = molecular target: T2, Aurora kinase A (Homo sapiens, UniProt O14965); experiment: Inhibition of recombinant human Aurora A (1 to 403 residues) expressed in Escherichia coli using STK-substrate 2-biotin as substrate incubated for 15 mins in presence of 24 uM ATP by HTRF assay
T2 sequence (O14965 whole entry): T1 sequence (whole entry)

Aurora kinase A [7] = molecular target: T2, Aurora kinase A; experiment: Inhibition of recombinant human Aurora A (1 to 403 residues) expressed in Escherichia coli using STK-substrate 2-biotin as substrate incubated for 40 mins in presence of 0.48 uM ATP by HTRF assay
Aurora kinase A [8] = molecular target: T2, Aurora kinase A; experiment: Inhibition of recombinant human Aurora A (1 to 403 residues) expressed in Escherichia coli using STK-substrate 2-biotin as substrate incubated for 40 mins in presence of 24 uM ATP by HTRF assay
Aurora kinase A [9] = molecular target: T2, Aurora kinase A; experiment: Inhibition of recombinant human Aurora A (1 to 403 residues) expressed in Escherichia coli using STK-substrate 2-biotin as substrate incubated for 60 mins in presence of 0.48 uM ATP by HTRF assay
Aurora kinase A [10] = molecular target: T2, Aurora kinase A; experiment: Inhibition of recombinant human Aurora A (1 to 403 residues) expressed in Escherichia coli using STK-substrate 2-biotin as substrate incubated for 60 mins in presence of 7.2uM ATP by HTRF assay
Aurora kinase A [11] = molecular target: T2, Aurora kinase A; experiment: Inhibition of recombinant human Aurora A (1 to 403 residues) expressed in Escherichia coli using STK-substrate 2-biotin as substrate incubated for 60 mins in presence of 24 uM ATP by HTRF assay
MDA-MB-231 [12] = experiment: Induction of cell cycle arrest in human MDA-MB-231 cells assessed as accumulation at G2/M phase at 1.25 to 5 uM incubated for 24 hrs by PI staining based flow cytometry; format: functional; conditions: dose 1.25-5 µM
MDA-MB-231 [13] = experiment: Induction of cell cycle arrest in human MDA-MB-231 cells assessed as accumulation at G2/M phase at 5 uM incubated for 24 hrs by PI staining based flow cytometry (Rvb=14.0%); format: functional
MDA-MB-231 [14] = experiment: Induction of apoptosis in human MDA-MB-231 cells assessed as necrotic cells at 2.5 uM incubated for 24 hrs by Annexin V-FITC staining based flow cytometry (Rvb= 1.67%); format: functional
MDA-MB-231 [15] = experiment: Induction of apoptosis in human MDA-MB-231 cells assessed as early apoptotic cells at 2.5 uM incubated for 24 hrs by Annexin V-FITC staining based flow cytometry (Rvb= 3.3%); format: functional
MDA-MB-231 [16] = experiment: Induction of apoptosis in human MDA-MB-231 cells assessed as live cells at 2.5 uM incubated for 24 hrs by Annexin V-FITC staining based flow cytometry (Rvb= 88.1%); format: functional
MDA-MB-231 [17] = experiment: Induction of apoptosis in human MDA-MB-231 cells assessed as live cells at 5 uM incubated for 24 hrs by Annexin V-FITC staining based flow cytometry (Rvb= 88.1%); format: functional
MDA-MB-231 [18] = experiment: Inhibition of cell migration in human MDA-MB-231 cells at 1.25 uM incubated for 18 hrs by Scratch assay (Rvb= 37.2%); format: functional
MDA-MB-231 [19] = experiment: Inhibition of […] in human MDA-MB-231 cells at 1 uM incubated for 14 days by crystal violet staining based colony formation assay (Rvb= 115+/-4%); format: functional; conditions: MDA-MB-231, 336 h, time 14 day
[20] = Metabolic stability in Sprague-Dawley rat liver microsomes assessed as half life at 1.75 uM incubated upto 60 mins in presence of NADPH by LC-MS analysis; format: ADME, Microsome
Mus musculus = experiment: In vivo inhibition of Aurora signalling pathway in human MDA-MB-231 cells xenografted in BALB/c nude mouse assessed as decrease in Aurora B phosphorylation at Thr232 residue in tumor at 15 mg/kg,ip every 2days for 20 days by Western blot analysis; format: functional, organism-based; conditions: time 20.0 day
[21] = Toxicity in BALB/c nude mouse xenografted with human MDA-MB-231 cells assessed as parenchymal injury in heart at 15 mg/kg,ip every 2days for 20 days by Hematoxylin and Eosin staining based microscopy; format: organism-based; conditions: in vivo, 480 h, time 20 day
[22] = Toxicity in BALB/c nude mouse xenografted with human MDA-MB-231 cells assessed as parenchymal injury in liver at 15 mg/kg,ip every 2days for 20 days by Hematoxylin and Eosin staining based microscopy; format: organism-based; conditions: in vivo, 480 h, time 20 day
[23] = Toxicity in BALB/c nude mouse xenografted with human MDA-MB-231 cells assessed as parenchymal injury in spleen at 15 mg/kg,ip every 2days for 20 days by Hematoxylin and Eosin staining based microscopy; format: organism-based; conditions: in vivo, 480 h, time 20 day
[24] = Toxicity in BALB/c nude mouse xenografted with human MDA-MB-231 cells assessed as inflammatory cell infiltration in spleen at 15 mg/kg,ip every 2days for 20 days by Hematoxylin and Eosin staining based microscopy; format: organism-based; conditions: in vivo, 480 h, time 20 day
[25] = Toxicity in BALB/c nude mouse xenografted with human MDA-MB-231 cells assessed as inflammatory cell infiltration in lung at 15 mg/kg,ip every 2days for 20 days by Hematoxylin and Eosin staining based microscopy; format: organism-based; conditions: in vivo, 480 h, time 20 day

- IC50 (SJSA-1): 4270 nM
- Activity [2]: Active
- inhibition [3]: Tde
- inhibition [4]: Dose-Dependent Effect
- Activity [5]: Active
- IC50 (Aurora kinase A [6]): 5.24 nM
- IC50 (Aurora kinase A [7]): 1.55 nM
- IC50 (Aurora kinase A [8]): 8.34 nM
- IC50 (Aurora kinase A [9]): 3.41 nM
- IC50 (Aurora kinase A [10]): 8.13 nM
- IC50 (Aurora kinase A [11]): 23.3 nM
- half-life at 1.75 µM [20]: 24.3 min
Compound: C=CC(=O)Nc1ccc(-c2nc(Nc3cc(C)[nH]n3)c3ccc(N4CCN(C)CC4)cc3n2)cc1
- IC50 at 48 h [1]: 23400 nM
- Activity (MDA-MB-231 [12]): Dose-Dependent Effect
- Activity (MDA-MB-231 [13]): 50.8%
- Activity (MDA-MB-231 [14]): 1.14%
- Activity (MDA-MB-231 [15]): 17.7%
- Activity (MDA-MB-231 [16]): 60.1%
- Activity (MDA-MB-231 [17]): 8.59%
- inhibition at 1.25 µM (MDA-MB-231 [18]): 3.6%
- inhibition at 1 µM (MDA-MB-231 [19]): 13%
- inhibition (Mus musculus): inactive
- Activity [21]: Non-Toxic
- Activity [22]: Non-Toxic
- Activity [23]: Non-Toxic
- Activity [24]: Non-Toxic
- Activity [25]: Non-Toxic

From ChEMBL document CHEMBL5370554, “Discovery of a first-in-class Aurora A covalent inhibitor for the treatment of triple negative breast cancer” (Eur J Med Chem, 2023)
